Measured values published in patent US8629141B2, “Spiro-oxindole MDM2 antagonists” (The Regents of the University of Michigan, priority 2011, dated 2014).
pIC50, pKi: −log10 of the molar value.

How the values were obtained:
[1] = biological target: recombinant human His-tagged MDM2 protein (residues 1-118) (Homo sapiens (Human), UniProt Q00987); experiment: Fluorescence-polarization MDM2 competitive binding assay; settings: for pIC50: FP competition with PMDM6-F peptide (1 nM), MDM2 10 nM, 3 h incubation, read-out: Binding affinities to MDM2 (1-118) IC50
Procedure: The binding affinity of the MDM2 inhibitors disclosed herein was determined using a fluorescence polarization-based (FP-based) binding assay using a recombinant human His-tagged MDM2 protein (residues 1-118) and a fluorescently tagged p53-based peptide.
(García-Echeverria et al., J. Med. Chem. 43: 3205-3208 (2000)). […] The assay was performed in the buffer: 100 mM potassium phosphate, pH 7.5; 100 μg/mL bovine gamma globulin; 0.02% sodium azide, 0.01% Triton X-100) and the polarization values were measured after 3 h of incubation using an ULTRA READER (Tecan U.S. Inc., Research Triangle Park, N.C.). […] The Kd value was calculated using the equation: Kd value=IC50−L0/2.
100 μg/mL bovine gamma globulin; 0.02% sodium azide, 0.01% Triton X-100), were added in a Dynex 96-well, black, round-bottom plate to produce a final volume of 125 μL. […] The polarization values were measured after 3 h of incubation. […] Curve fitting was performed using […] PRISM software (GraphPad Software, Inc., San Diego, Calif.).

[2] = Stability in 1:1 MeOH:H2O with 10% TFA; format: physicochemical; settings: 1:1 MeOH:H2O with 10% TFA added, UPLC (FIG. 6)
Procedure: The stability of Compound Example Nos. 10 and 11 were determined in 1:1 MeOH:H2O with 10% TFA added using ultra performance liquid chromatography (FIG. 6).

[3] = Stability of compounds in solution, 1:1 MeOH:H2O; format: physicochemical; settings: ultra performance liquid chromatography (FIG. 4)
[4] = Stability of compounds in solution, 1:1 CH3CN:H2O; format: physicochemical; settings: ultra performance liquid chromatography (FIG. 5)

pIC50 [1] | Structure (SMILES) | other results
6.70 | CC1(C)N[C@@H](C(=O)NC2CCC(O)CC2)[C@H](c2cccc(Cl)c2F)[C@]12C(=O)Nc1cc(Cl)ccc12 (some centres unmarked) [Compound 1] | pKi ([1]; FP competition with PMDM6-F peptide, read-out: Binding affinities to MDM2 (1-118) Ki): 7.58
< 5.00 | O=C(NC1CCC(O)CC1)[C@@H]1NC[C@@]2(C(=O)Nc3cc(Cl)ccc32)[C@H]1c1cccc(Cl)c1F (some centres unmarked) [Compound 5] | –
> 6.00 | CCC1(CC)N[C@@H](C(=O)NCCN2CCOCC2)[C@H](c2cccc(Cl)c2F)[C@]12C(=O)Nc1cc(Cl)ccc12 [Compound 6] | –
> 6.00 | O=C(NCCN1CCOCC1)[C@@H]1NC2(CCC(F)(F)CC2)[C@@]2(C(=O)Nc3cc(Cl)ccc32)[C@H]1c1cccc(Cl)c1F [Compound 7] | –
> 5.30 | O=C(NCCN1CCOCC1)[C@@H]1NC2(CCC(F)(F)CC2)[C@]2(C(=O)Nc3cc(Cl)ccc32)[C@H]1c1cccc(Cl)c1F [Compound 8] | –
> 5.30 | O=C(NCCN1CCOCC1)[C@@H]1NC2(CCOCC2)[C@@]2(C(=O)Nc3cc(Cl)ccc32)[C@H]1c1cccc(Cl)c1F [Compound 12] | –
> 7.00 | O=C(NCCN1CCOCC1)[C@@H]1NC2(CCCCC2)[C@@]2(C(=O)Nc3cc(Cl)ccc32)[C@H]1c1cccc(Cl)c1F [Compound 15] | –
> 7.00 | CS(=O)(=O)CCNC(=O)[C@@H]1NC2(CCCCC2)[C@@]2(C(=O)Nc3cc(Cl)ccc32)[C@H]1c1cccc(Cl)c1F [Compound 20] | –
> 7.00 | CS(=O)(=O)CCN1CCC(NC(=O)[C@@H]2NC3(CCCCC3)[C@@]3(C(=O)Nc4cc(Cl)ccc43)[C@H]2c2cccc(Cl)c2F)CC1 [Compound 25] | –
> 6.30 | O=C(O)[C@@H]1NC2(CCCCC2)[C@@]2(C(=O)Nc3cc(Cl)ccc32)[C@H]1c1cccc(Cl)c1F [Compound 26] | –
> 7.00 | O=C(NCc1nnn[nH]1)[C@@H]1NC2(CCCCC2)[C@@]2(C(=O)Nc3cc(Cl)ccc32)[C@H]1c1cccc(Cl)c1F [Compound 32] | –
> 7.00 | CC1(O)CC(NC(=O)[C@@H]2NC3(CCCCC3)[C@@]3(C(=O)Nc4cc(Cl)ccc43)[C@H]2c2cccc(Cl)c2F)C1 (some centres unmarked) [Compound 33] | –
< 5.00 | CNC(=O)[C@@H]1NC2(CCCCC2)[C@@]2(C(=O)Nc3cc(Cl)ccc32)[C@H]1c1cc(Cl)ccc1OC(C)(C)C(=O)O [Compound 34] | –
< 5.00 | CNC(=O)[C@@H]1NC2(CCCCC2)[C@@]2(C(=O)Nc3cc(Cl)ccc32)[C@H]1c1cc(Cl)cnc1OC(C)(C)C(=O)O [Compound 35] | –
> 7.00 | O=C(NC1CN(C(=O)O)C1)[C@@H]1NC2(CCCCC2)[C@@]2(C(=O)Nc3cc(Cl)ccc32)[C@H]1c1cccc(Cl)c1F [Compound 39] | –
> 7.00 | O=C(NC1CCC(O)CC1)[C@@H]1NC2(CCCCC2)[C@@]2(C(=O)Nc3cc(Cl)ccc32)[C@H]1c1cccc(Cl)c1F (some centres unmarked) [Compound 41] | –
– | O=C(NC1CCC(O)CC1)[C@@H]1NC2(CCOCC2)[C@]2(C(=O)Nc3cc(Cl)ccc32)[C@H]1c1cccc(Cl)c1F (some centres unmarked) [compound 10] | Stability in solution (isomer conversion) [2]: converted into Compound Example No. 11
– | O=C(NC1CN(C(=O)O)C1)[C@@H]1NC2(CCCCC2)[C@@]2(C(=O)Nc3cc(Cl)ccc32)[C@H]1c1cccc(Cl)c1F [compound 39] | Stability in solution [3]: more stable than MI-77301; Stability in solution [4]: more stable than MI-77301
